PubChem BioAssay AID330 (DTP/NCI, 2004)
Values joined by “and” are separate entries in the source; they are usually repeats but may differ in a detail not shown here. Equal entries are not always repeated. Toxic doses and inconclusive results are not listed.

System: P388 leukemia ip, CD2F1 mice, survival T/C
Assay: NCI In Vivo Anticancer Drug Screen. Data for tumor model P388 Leukemia (intraperitoneal) in CD2F1 (CDF1) mice
Conditions: endpoint: median survival time, higher = longer survival
Method in brief: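 Mice carrying the transplanted tumor received test compound or vehicle. Survival was recorded in each group, and the value is the treated-group measurement divided by that of the vehicle-treated control group.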

[1] = dose: 100.0 mg/kg/injection, schedule: Q01DX009 (ip), vehicle: saline with Tween-80
[2] = dose: 200.0 mg/kg/injection, schedule: Q01DX009 (ip), vehicle: saline with Tween-80
[3] = dose: 25.0 mg/kg/injection, schedule: Q04DX003 (ip), vehicle: saline with Tween-80
[4] = dose: 50.0 mg/kg/injection, schedule: Q04DX003 (ip), vehicle: saline with Tween-80
[5] = dose: 100.0 mg/kg/injection, schedule: Q04DX003 (ip), vehicle: saline with Tween-80
[6] = dose: 60.0 mg/kg/injection, schedule: Q01DX005 (ip), vehicle: Klucel (hydroxypropylcellulose) (HPC)
[7] = dose: 120.0 mg/kg/injection, schedule: Q01DX005 (ip), vehicle: Klucel (hydroxypropylcellulose) (HPC)
[8] = dose: 100.0 mg/kg/injection, schedule: Q04DX002 (ip), vehicle: Klucel (hydroxypropylcellulose) (HPC)
[9] = dose: 200.0 mg/kg/injection, schedule: Q04DX002 (ip), vehicle: Klucel (hydroxypropylcellulose) (HPC)
[10] = dose: 50.0 mg/kg/injection, schedule: Q01DX005 (ip), vehicle: saline with Tween-80
[11] = dose: 100.0 mg/kg/injection, schedule: Q01DX005 (ip), vehicle: saline with Tween-80
[12] = dose: 200.0 mg/kg/injection, schedule: Q01DX005 (ip), vehicle: saline with Tween-80

For `C=C1CCC2C(OC(=O)C2(O)CO)C2C(=C)C(O)CC12` (configuration not stated), the T/C (dose: 9.38 mg/kg/injection, schedule: Q01DX005 (ip), vehicle: Klucel (hydroxypropylcellulose) (HPC)) was 103 % of control, the T/C (dose: 18.75 mg/kg/injection, schedule: Q01DX005 (ip), vehicle: Klucel (hydroxypropylcellulose) (HPC)) was 105 % of control and the T/C (dose: 37.5 mg/kg/injection, schedule: Q01DX005 (ip), vehicle: Klucel (hydroxypropylcellulose) (HPC)) was 100 % of control. For the same compound, the T/C (dose: 75.0 mg/kg/injection, schedule: Q01DX005 (ip), vehicle: Klucel (hydroxypropylcellulose) (HPC)) was 104 % of control and the T/C (dose: 150.0 mg/kg/injection, schedule: Q01DX005 (ip), vehicle: Klucel (hydroxypropylcellulose) (HPC)) was 113 % of control.

For `COc1ccc2c(C)c(N=C=S)c(=O)oc2c1`, the T/C (dose: 50.0 mg/kg/injection, schedule: Q04DX003 (ip), vehicle: suspension in saline) was 100 % of control, the T/C (dose: 100.0 mg/kg/injection, schedule: Q04DX003 (ip), vehicle: suspension in saline) was 100 % of control and the T/C (dose: 200.0 mg/kg/injection, schedule: Q04DX003 (ip), vehicle: suspension in saline) was 106 % of control.

`CC#CC#C/C=C1/C=CC2(CCCCO2)O1` (configuration not stated) was tested, and the T/C (dose: 12.5 mg/kg/injection, schedule: Q01DX009 (ip), vehicle: Klucel (hydroxypropylcellulose) (HPC)) was 100 % of control, the T/C (dose: 25.0 mg/kg/injection, schedule: Q01DX009 (ip), vehicle: Klucel (hydroxypropylcellulose) (HPC)) was 101 % of control and the T/C (dose: 50.0 mg/kg/injection, schedule: Q01DX009 (ip), vehicle: Klucel (hydroxypropylcellulose) (HPC)) was 107 % of control. For the same compound, the T/C (dose: 100.0 mg/kg/injection, schedule: Q01DX009 (ip), vehicle: Klucel (hydroxypropylcellulose) (HPC)) was 104 % of control.

In the case of `O/N=C1/CN(CCN2CC(NO)=N/C(=N\O)C2)CC(NO)=N1`, the T/C (dose: 50.0 mg/kg/injection, schedule: Q01DX005 (ip), vehicle: Klucel (hydroxypropylcellulose) (HPC)) was 90 % of control, the T/C (dose: 100.0 mg/kg/injection, schedule: Q01DX005 (ip), vehicle: Klucel (hydroxypropylcellulose) (HPC)) was 89 % of control and the T/C (dose: 200.0 mg/kg/injection, schedule: Q01DX005 (ip), vehicle: Klucel (hydroxypropylcellulose) (HPC)) was 89 % of control.

`CC(=O)CC(=O)N(C)C` was tested, and the T/C (dose: 50.0 mg/kg/injection, schedule: Q01DX009 (ip), vehicle: saline) was 100 % of control, the T/C (dose: 100.0 mg/kg/injection, schedule: Q01DX009 (ip), vehicle: saline) was 98 % of control and the T/C (dose: 200.0 mg/kg/injection, schedule: Q01DX009 (ip), vehicle: saline) was 99 % of control. For the same compound, the T/C (dose: 400.0 mg/kg/injection, schedule: Q01DX009 (ip), vehicle: saline) was 99 % of control.

In the case of `Nc1c(CNCc2nnn(Cc3ccccc3)c2N)nnn1Cc1ccccc1`, the T/C (dose: 50.0 mg/kg/injection, schedule: Q01DX009 (ip), vehicle: saline with Tween-80) was 96 % of control, the T/C [1] was 93 % of control and the T/C [2] was 93 % of control.

`COCC(O)CN1CCN(c2ccccc2C)CC1` (configuration not stated) was tested, and the T/C [3] was 100 % of control, the T/C [4] was 100 % of control and the T/C [5] was 90 % of control.

In the case of `O=C1CN=C(c2ccccn2)c2cc(Cl)ccc2N1CCO`, the T/C [1] was 100 % of control and the T/C [2] was 105 % of control.

In the case of `CCOC(=O)c1cnc2cc3c(cc2c1Nc1cccc(C)c1C)OCO3`, the T/C [6] was 101 % of control, the T/C [7] was 101 % of control and the T/C (dose: 240.0 mg/kg/injection, schedule: Q01DX005 (ip), vehicle: Klucel (hydroxypropylcellulose) (HPC)) was 95 % of control.

For `CC(=O)Nc1nc(C)c(CCCOc2ccc([N+](=O)[O-])cc2)c(=O)[nH]1`, the T/C [6] was 86 % of control and the T/C [7] was 86 % of control.

For `O=C(Nc1ccc(C2=NCCN2)cc1)c1ccc(NC(=O)c2ccc(C3=NCCN3)cc2)cc1`, the T/C (dose: 18.0 mg/kg/injection, schedule: Q01DX010 (ip), vehicle: saline) was 154 % of control and the T/C (dose: 27.0 mg/kg/injection, schedule: Q01DX010 (ip), vehicle: saline) was 172 % of control.

`CN1CCC(O)(O)C(Cl)(Cl)C1` was tested, and the T/C (dose: 50.0 mg/kg/injection, schedule: Q01DX005 (ip), vehicle: suspension in saline) was 104 % of control, the T/C (dose: 100.0 mg/kg/injection, schedule: Q01DX005 (ip), vehicle: suspension in saline) was 99 % of control and the T/C (dose: 200.0 mg/kg/injection, schedule: Q01DX005 (ip), vehicle: suspension in saline) was 95 % of control.

In the case of `CCCCCCCCC(Cn1ccnc1)c1ccc(F)cc1` (configuration not stated), the T/C [4] was 106 % of control, the T/C [5] was 100 % of control and 103 % of control and the T/C (dose: 200.0 mg/kg/injection, schedule: Q04DX003 (ip), vehicle: saline with Tween-80) was 100 % of control.

For `O=S(=O)(O)CCCNC(CO)(CO)CO`, the T/C (dose: 60.0 mg/kg/injection, schedule: Q01DX005 (ip), vehicle: saline) was 106 % of control, the T/C (dose: 120.0 mg/kg/injection, schedule: Q01DX005 (ip), vehicle: saline) was 107 % of control and the T/C (dose: 240.0 mg/kg/injection, schedule: Q01DX005 (ip), vehicle: saline) was 107 % of control.

In the case of `O=[C-]C(F)(F)F.[C-]#[O+].[C-]#[O+].[C-]#[O+].[C-]#[O+].[C-]#[O+].[Mn]`, the T/C (dose: 50.0 mg/kg/injection, schedule: Q01DX001 (ip), vehicle: other) was 100 % of control and the T/C (dose: 100.0 mg/kg/injection, schedule: Q01DX001 (ip), vehicle: other) was 100 % of control.

`Cc1nc2c([N+](=O)[O-])c(N(C)C)c([N+](=O)[O-])cc2[nH]1` was tested, and the T/C [3] was 96 % of control and the T/C [4] was 87 % of control.

For `COc1ccc(C2=C(Cl)C(=O)N(c3ccc(OC)cc3)C(=O)C2(Cl)Cl)cc1`, the T/C [8] was 101 % of control, the T/C [9] was 95 % of control and the T/C (dose: 400.0 mg/kg/injection, schedule: Q04DX002 (ip), vehicle: Klucel (hydroxypropylcellulose) (HPC)) was 111 % of control.

For `COc1cccc2c1SCC/C2=N\OCC(O)CNC1CCCCC1` (configuration not stated), the T/C [8] was 94 % of control and the T/C [9] was 94 % of control.

In the case of `Cc1ccc(CN(S(=O)(=O)c2ccc(C)cc2)S(=O)(=O)c2ccc(C)cc2)cc1`, the T/C [1] was 88 % of control and the T/C [2] was 113 % of control.

`O=c1[nH]c(=O)c2nc(-c3ccc4c(c3)OCO4)cnc2[nH]1` was tested, and the T/C (dose: 100.0 mg/kg/injection, schedule: Q04DX003 (ip), vehicle: lactic acid) was 93 % of control and the T/C (dose: 200.0 mg/kg/injection, schedule: Q04DX003 (ip), vehicle: lactic acid) was 87 % of control.

For `CCCC12C=C(OC)C(=O)C=C1OC(c1cc(OC)c(OC)c(OC)c1)C2C` (configuration not stated), the T/C (dose: 8.75 mg/kg/injection, schedule: Q01DX005 (ip), vehicle: Klucel (hydroxypropylcellulose) (HPC)) was 101 % of control, the T/C (dose: 17.5 mg/kg/injection, schedule: Q01DX005 (ip), vehicle: Klucel (hydroxypropylcellulose) (HPC)) was 96 % of control and the T/C (dose: 35.0 mg/kg/injection, schedule: Q01DX005 (ip), vehicle: Klucel (hydroxypropylcellulose) (HPC)) was 100 % of control.

In the case of `C#Cc1cccc(N=Cc2cc([N+](=O)[O-])cc(Br)c2O)c1`, the T/C [10] was 100 % of control, the T/C [11] was 105 % of control and the T/C [12] was 105 % of control.

In the case of `O=[N+]([O-])c1ccc(OS(=O)(=O)/C=C/c2ccccc2)cc1`, the T/C (dose: 100.0 mg/kg/injection, schedule: Q01DX001 (ip), vehicle: Klucel (hydroxypropylcellulose) (HPC)) was 99 % of control, the T/C (dose: 200.0 mg/kg/injection, schedule: Q01DX001 (ip), vehicle: Klucel (hydroxypropylcellulose) (HPC)) was 100 % of control and the T/C (dose: 400.0 mg/kg/injection, schedule: Q01DX001 (ip), vehicle: Klucel (hydroxypropylcellulose) (HPC)) was 94 % of control.

For `CCc1cccc(C)c1NC(=O)CCc1nnc(N)n1N`, the T/C [10] was 104 % of control, the T/C [11] was 107 % of control and the T/C [12] was 94 % of control.

In the case of `C=CC(C)(C)/C=C/C=O`, the T/C (dose: 60.0 mg/kg/injection, schedule: Q01DX005 (ip), vehicle: saline with Tween-80) was 97 % of control, the T/C (dose: 120.0 mg/kg/injection, schedule: Q01DX005 (ip), vehicle: saline with Tween-80) was 92 % of control and the T/C (dose: 240.0 mg/kg/injection, schedule: Q01DX005 (ip), vehicle: saline with Tween-80) was 104 % of control.

For `CCCCOC(=O)N(CCCl)N=O`, the T/C (dose: 1.25 mg/kg/injection, schedule: Q01DX009 (ip), vehicle: saline with Tween-80) was 119 % of control, the T/C (dose: 2.5 mg/kg/injection, schedule: Q01DX009 (ip), vehicle: saline with Tween-80) was 108 % of control and the T/C (dose: 5.0 mg/kg/injection, schedule: Q01DX009 (ip), vehicle: saline with Tween-80) was 98 % of control.

`CCNCCn1cccc1` was tested, and the T/C (dose: 50.0 mg/kg/injection, schedule: Q04DX003 (ip), vehicle: saline) was 91 % of control, the T/C (dose: 100.0 mg/kg/injection, schedule: Q04DX003 (ip), vehicle: saline) was 95 % of control and the T/C (dose: 200.0 mg/kg/injection, schedule: Q04DX003 (ip), vehicle: saline) was 95 % of control.
